According to patent publication US10640512B2, “Imidazopyrazinamine phenyl derivative and use thereof” (HANGZHOU SANYINTAI PHARMACEUTICAL TECHNOLOGY CO., LTD., priority 2016, dated 2020):
Read-outs that look alike come from different tables or passages of the source.

What was measured:
[1] = target: BTK (Homo sapiens, UniProt Q06187); assay: Caliper Mobility Shift Assay, kinase inhibition; type: biochemical; settings: for IC50: BTK enzyme activity; for inhibiting effects on BTK kinase (in words): summary of Table 1
Excerpt: (§1) The test method used was the Caliper Mobility Shift Assay, the kinases to be tested are BTK, ITK, TEC, EGFR, HER2, HER4, JAK3, HCK, LYN, SRC and SYK. The standard reference compound used was staurosporine.

[2] = disclosed in a conference paper (2nd International Conference on New Concepts in B-cell Malignancies, 2016); cited from earlier work
[3] = In vitro liver microsomal metabolism (human); type: in vitro ADME; settings: human liver microsomes; for half-life: NADPH, 37° C., read-out: T1/2 in liver microsomes; for CLint scaled: calculated from elimination half life, read-out: intrinsic clearance (CLint)
Method: (§2) In addition, in vitro liver microsomal metabolism of the compounds of the present invention was also tested. The test compound was co-incubated with NADPH and mouse or human liver microsomes in a 37° C. water bath pot, a reaction was initiated by adding the test compound. […] was taken at different time points (0, 10, 20, 40 and 60 minutes) and transferred to acetonitrile containing an internal standard. After proteins were precipitated, the supernatant was obtained by centrifugation. The test compound in the supernatant was analyzed by the LC-MS/MS method. The intrinsic clearance in vitro was calculated according to the elimination half life of the test compound in the incubation system. Midazolam was subjected to parallel incubation as a positive control. […] Tests of the other compounds of the present invention also had similar results.

[4] = In vitro liver microsomal metabolism (mouse); type: in vitro ADME; settings: for half-life / CLint scaled: mouse liver microsomes; for half-life: NADPH, 37° C., read-out: T1/2 in liver microsomes; for CLint scaled: calculated from elimination half life, read-out: intrinsic clearance (CLint)
Method: as §2

[5] = target: HCK (Homo sapiens, UniProt P08631); assay: Caliper Mobility Shift Assay, kinase inhibition; type: biochemical
Excerpt: as §1

[6] = target: LYN (Homo sapiens, UniProt P07948); assay: Caliper Mobility Shift Assay, kinase inhibition; type: biochemical
Excerpt: as §1

[7] = target: SYK (Homo sapiens, UniProt P43405); assay: Caliper Mobility Shift Assay, kinase inhibition; type: biochemical
Excerpt: as §1

[8] = target: SRC (Homo sapiens, UniProt P12931); assay: Caliper Mobility Shift Assay, kinase inhibition; type: biochemical
Excerpt: as §1

[9] = test system: ITK, TEC, EGFR, HER2, HER4, JAK3, HCK, LYN, SRC and SYK; assay: Kinase selectivity panel, Caliper Mobility Shift Assay; type: biochemical; settings: summary of Table 2
Method: The semi-inhibitory concentration IC50 of the compound (the concentration of the compound required to inhibit the enzyme activity to 50%) is determined by mixing a fixed enzyme with a specific substrate and different concentrations of the test compounds. The test method used was the Caliper Mobility Shift Assay, the kinases to be tested are BTK, ITK, TEC, EGFR, HER2, HER4, JAK3, HCK, LYN, SRC and SYK. The standard reference compound used was staurosporine.
The results of experiments on the inhibitions of ITK, TEC, EGFR, HER2, HER4, JAK3, HCK, LYN, SRC and SYK enzyme activities by the target compound Id were summarized in Table 2. […] This selective inhibiting effect has important values for the treatment of diseases such as rheumatoid arthritis, B cell lymphoma, leukemia, multiple myeloma, allergies, asthma, multiple sclerosis, type I diabetes and systemic lupus erythematosus. The tests of other compounds of the present invention also have similar results.

[10] = Pharmacokinetic properties in CD-1 mouse; type: in vivo; settings: both sexes, plasma; for AUC(0-t): read-out: AUClast (area under the curve); for half-life: read-out: Terminal t1/2 (half life) (converted)
Method: Experiment animals: CD-1 mouse, males and females; body weight: 20-25 g;
Route of administration: oral/intravenous. […]
Sample collection: blood samples were collected at the following time points: 5 minutes, 15 minutes, 30 minutes, 1 hours, 2 hours, 4 hours, 8 hours and 24 hours after administration.
Sample analysis: The collected samples were tested using the LC-MS/MS method. The model of the instrument used was API4000.
Pharmacokinetic data analysis: the obtained plasma concentration data were fitted and calculated according to the non-compartmental model method using WinNolin.
In Table 3, CL: clearance. VSS: apparent volume of distribution at steady state. Terminal t1/2: half life. AUClast: area under the curve. MRTINF: average residence time. Tmax: peak time. Cmax: peak concentration. F: bioavailability, refers to the fraction of oral dosage actually reaching the blood circulation.

[11] = target: T1, ITK (Homo sapiens, UniProt Q08881); assay: Caliper Mobility Shift Assay, kinase inhibition; type: biochemical
T1 sequence (Q08881 1-620): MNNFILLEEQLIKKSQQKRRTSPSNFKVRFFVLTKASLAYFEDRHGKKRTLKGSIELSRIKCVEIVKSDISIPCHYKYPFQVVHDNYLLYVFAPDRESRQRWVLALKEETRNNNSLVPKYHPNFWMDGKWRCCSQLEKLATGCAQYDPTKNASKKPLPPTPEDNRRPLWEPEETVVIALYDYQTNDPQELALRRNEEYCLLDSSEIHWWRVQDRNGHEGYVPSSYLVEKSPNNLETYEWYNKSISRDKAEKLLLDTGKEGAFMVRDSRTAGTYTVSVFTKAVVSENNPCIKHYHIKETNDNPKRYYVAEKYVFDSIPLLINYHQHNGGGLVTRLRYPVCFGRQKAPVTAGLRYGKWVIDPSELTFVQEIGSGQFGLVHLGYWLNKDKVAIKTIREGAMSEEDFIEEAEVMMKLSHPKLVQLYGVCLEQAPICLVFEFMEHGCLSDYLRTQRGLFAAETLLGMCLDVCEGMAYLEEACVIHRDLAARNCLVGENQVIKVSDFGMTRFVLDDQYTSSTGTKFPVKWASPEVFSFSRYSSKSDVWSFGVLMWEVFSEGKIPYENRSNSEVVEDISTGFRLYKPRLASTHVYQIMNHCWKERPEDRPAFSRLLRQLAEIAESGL
Excerpt: as §1

[12] = target: HER2 (Homo sapiens, UniProt P04626); assay: Caliper Mobility Shift Assay, kinase inhibition; type: biochemical
Excerpt: as §1

[13] = target: T2, JAK3 (Homo sapiens, UniProt P52333); assay: Caliper Mobility Shift Assay, kinase inhibition; type: biochemical
T2 sequence (P52333 1-1124): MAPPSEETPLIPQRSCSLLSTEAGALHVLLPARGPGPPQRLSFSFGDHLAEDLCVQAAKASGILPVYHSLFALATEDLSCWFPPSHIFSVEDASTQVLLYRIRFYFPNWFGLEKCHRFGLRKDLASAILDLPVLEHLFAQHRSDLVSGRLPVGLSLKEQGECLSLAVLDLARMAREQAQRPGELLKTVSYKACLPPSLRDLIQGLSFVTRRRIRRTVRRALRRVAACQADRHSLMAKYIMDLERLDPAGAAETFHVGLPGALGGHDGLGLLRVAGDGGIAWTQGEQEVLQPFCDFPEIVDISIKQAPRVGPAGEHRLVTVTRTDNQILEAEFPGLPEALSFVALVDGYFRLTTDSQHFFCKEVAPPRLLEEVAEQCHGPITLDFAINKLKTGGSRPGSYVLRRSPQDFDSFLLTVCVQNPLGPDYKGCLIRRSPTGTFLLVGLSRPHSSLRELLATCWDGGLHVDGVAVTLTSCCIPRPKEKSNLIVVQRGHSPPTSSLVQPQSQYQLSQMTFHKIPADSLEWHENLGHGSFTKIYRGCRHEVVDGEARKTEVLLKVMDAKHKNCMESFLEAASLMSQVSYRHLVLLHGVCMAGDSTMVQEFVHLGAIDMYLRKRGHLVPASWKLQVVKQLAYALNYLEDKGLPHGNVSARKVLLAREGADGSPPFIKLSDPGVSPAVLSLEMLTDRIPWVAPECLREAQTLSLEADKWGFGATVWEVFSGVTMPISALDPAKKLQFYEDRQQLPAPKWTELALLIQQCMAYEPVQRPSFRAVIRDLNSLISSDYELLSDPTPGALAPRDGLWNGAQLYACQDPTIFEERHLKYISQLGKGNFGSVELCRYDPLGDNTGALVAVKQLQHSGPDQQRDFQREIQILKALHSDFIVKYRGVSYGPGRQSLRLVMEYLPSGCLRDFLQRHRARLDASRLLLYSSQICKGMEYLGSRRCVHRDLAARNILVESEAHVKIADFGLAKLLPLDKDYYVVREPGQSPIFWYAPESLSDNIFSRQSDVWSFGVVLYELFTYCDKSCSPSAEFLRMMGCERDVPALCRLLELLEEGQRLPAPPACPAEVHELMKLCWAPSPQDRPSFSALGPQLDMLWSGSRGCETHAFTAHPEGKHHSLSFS
Excerpt: as §1

[14] = target: EGFR (Homo sapiens, UniProt P00533); assay: Caliper Mobility Shift Assay, kinase inhibition; type: biochemical
Excerpt: as §1

[15] = target: T3, TEC (Homo sapiens, UniProt P42680); assay: Caliper Mobility Shift Assay, kinase inhibition; type: biochemical
T3 sequence (P42680 1-631): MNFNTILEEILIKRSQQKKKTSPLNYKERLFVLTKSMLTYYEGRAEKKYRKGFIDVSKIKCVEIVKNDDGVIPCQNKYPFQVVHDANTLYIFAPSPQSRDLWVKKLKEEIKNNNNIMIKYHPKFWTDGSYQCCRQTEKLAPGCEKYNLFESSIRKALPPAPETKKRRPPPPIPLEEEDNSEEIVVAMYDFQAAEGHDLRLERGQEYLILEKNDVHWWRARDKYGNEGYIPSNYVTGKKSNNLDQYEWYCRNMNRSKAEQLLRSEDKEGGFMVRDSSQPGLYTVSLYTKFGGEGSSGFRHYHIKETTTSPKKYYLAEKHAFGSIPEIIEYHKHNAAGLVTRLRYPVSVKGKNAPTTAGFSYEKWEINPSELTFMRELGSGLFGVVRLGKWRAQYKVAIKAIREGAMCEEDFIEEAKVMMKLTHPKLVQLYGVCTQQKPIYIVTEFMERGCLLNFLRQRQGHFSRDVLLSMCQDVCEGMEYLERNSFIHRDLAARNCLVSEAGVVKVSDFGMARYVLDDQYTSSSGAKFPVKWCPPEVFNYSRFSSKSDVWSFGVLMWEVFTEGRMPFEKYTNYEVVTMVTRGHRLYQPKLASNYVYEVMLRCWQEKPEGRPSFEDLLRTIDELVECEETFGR
Excerpt: as §1

[16] = target: HER4 (Homo sapiens, UniProt Q15303); assay: Caliper Mobility Shift Assay, kinase inhibition; type: biochemical
Excerpt: as §1

[17] = 3 mg/kg, intravenous injection, single administration
[18] = 15 mg/kg, oral, single administration

BTK, sequence (Q06187 whole entry): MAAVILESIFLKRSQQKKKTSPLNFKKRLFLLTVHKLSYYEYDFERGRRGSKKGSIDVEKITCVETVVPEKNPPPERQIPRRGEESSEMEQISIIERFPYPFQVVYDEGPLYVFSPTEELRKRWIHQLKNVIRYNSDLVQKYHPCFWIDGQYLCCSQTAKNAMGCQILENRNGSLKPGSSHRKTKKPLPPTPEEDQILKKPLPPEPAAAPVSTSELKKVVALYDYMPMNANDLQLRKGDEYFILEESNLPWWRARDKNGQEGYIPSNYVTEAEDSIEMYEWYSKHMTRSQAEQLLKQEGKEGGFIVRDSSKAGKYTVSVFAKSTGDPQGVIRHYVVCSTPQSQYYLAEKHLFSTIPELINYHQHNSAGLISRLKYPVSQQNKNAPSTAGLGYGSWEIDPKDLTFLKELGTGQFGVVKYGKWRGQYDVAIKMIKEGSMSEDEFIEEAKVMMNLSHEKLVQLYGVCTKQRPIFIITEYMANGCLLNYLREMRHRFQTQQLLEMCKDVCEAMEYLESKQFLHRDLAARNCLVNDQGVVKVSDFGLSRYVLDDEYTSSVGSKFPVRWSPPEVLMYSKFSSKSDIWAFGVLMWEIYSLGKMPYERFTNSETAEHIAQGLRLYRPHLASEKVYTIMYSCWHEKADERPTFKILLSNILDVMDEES
LYN, sequence (P07948 whole entry): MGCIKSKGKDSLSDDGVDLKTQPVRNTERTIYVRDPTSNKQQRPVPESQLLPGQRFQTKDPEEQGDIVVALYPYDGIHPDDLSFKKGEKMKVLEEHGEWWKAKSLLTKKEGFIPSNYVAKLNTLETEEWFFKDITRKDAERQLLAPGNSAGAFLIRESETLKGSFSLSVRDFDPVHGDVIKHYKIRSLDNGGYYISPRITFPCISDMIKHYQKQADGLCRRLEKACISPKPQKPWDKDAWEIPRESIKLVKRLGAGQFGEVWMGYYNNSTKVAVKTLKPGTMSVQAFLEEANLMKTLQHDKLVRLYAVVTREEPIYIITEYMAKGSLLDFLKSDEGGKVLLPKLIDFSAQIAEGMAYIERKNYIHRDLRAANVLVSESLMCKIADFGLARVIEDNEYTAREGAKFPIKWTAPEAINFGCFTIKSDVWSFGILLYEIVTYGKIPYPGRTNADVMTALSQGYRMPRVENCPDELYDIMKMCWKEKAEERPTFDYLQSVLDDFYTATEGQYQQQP
HCK, sequence (P08631 whole entry): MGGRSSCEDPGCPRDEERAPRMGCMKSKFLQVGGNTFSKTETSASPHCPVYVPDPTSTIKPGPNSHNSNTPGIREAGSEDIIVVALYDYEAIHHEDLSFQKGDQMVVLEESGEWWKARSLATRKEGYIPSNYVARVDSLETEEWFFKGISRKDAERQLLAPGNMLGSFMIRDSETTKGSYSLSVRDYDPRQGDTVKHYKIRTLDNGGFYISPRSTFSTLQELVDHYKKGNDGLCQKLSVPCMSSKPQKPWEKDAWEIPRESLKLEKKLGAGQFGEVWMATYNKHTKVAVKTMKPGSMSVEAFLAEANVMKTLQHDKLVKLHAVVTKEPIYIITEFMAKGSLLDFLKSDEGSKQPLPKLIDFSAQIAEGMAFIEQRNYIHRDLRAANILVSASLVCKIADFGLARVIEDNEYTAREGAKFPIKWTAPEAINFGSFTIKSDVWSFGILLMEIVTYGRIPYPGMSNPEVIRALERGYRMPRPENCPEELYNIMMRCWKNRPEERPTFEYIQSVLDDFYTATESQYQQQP
SRC, sequence (P12931 whole entry): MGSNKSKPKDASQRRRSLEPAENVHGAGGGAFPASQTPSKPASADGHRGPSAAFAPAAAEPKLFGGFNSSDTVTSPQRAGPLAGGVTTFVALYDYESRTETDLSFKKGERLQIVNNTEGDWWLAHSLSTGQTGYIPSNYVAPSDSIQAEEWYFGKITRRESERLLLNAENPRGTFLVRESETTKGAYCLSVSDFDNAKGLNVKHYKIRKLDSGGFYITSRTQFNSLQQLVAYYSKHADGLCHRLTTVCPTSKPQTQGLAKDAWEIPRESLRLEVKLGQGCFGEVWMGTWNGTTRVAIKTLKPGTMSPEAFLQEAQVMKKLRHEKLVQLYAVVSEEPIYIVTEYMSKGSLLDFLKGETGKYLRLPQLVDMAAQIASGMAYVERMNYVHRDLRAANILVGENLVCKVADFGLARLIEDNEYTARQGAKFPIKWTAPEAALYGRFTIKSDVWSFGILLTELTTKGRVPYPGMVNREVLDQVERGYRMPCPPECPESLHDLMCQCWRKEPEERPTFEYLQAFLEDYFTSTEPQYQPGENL
HER2, sequence (P04626 23-1255): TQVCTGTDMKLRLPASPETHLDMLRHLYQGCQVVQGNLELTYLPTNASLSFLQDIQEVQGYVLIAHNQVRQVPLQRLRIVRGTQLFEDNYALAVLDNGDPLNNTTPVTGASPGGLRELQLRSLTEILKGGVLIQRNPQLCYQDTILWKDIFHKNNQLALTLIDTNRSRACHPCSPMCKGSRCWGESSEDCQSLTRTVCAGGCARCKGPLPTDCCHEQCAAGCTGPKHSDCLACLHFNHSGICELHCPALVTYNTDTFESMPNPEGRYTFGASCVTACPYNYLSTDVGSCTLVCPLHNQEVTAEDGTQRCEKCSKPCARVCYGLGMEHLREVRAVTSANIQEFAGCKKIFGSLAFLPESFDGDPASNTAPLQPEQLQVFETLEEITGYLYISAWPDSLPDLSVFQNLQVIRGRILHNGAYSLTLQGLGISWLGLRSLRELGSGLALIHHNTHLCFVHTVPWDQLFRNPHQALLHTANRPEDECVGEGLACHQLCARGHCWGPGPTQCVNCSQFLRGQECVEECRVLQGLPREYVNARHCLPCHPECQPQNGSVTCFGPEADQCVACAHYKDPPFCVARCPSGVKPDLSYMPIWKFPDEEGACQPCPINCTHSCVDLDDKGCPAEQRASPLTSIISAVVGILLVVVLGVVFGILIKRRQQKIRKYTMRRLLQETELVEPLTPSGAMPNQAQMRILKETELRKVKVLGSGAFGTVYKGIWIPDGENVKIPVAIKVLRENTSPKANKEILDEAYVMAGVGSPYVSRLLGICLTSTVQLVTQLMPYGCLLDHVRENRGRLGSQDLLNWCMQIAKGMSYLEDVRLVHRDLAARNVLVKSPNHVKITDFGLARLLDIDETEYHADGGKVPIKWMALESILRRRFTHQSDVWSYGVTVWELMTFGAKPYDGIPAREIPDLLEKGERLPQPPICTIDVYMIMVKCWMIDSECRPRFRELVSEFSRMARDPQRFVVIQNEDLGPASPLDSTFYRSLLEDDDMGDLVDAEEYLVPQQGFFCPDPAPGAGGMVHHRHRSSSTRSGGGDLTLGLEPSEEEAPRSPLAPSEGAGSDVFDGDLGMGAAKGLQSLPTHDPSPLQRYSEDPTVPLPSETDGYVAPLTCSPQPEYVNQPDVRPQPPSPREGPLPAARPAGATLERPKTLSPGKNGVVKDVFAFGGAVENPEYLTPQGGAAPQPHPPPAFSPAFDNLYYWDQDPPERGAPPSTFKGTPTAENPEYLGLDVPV
HER4, sequence (Q15303 26-1308): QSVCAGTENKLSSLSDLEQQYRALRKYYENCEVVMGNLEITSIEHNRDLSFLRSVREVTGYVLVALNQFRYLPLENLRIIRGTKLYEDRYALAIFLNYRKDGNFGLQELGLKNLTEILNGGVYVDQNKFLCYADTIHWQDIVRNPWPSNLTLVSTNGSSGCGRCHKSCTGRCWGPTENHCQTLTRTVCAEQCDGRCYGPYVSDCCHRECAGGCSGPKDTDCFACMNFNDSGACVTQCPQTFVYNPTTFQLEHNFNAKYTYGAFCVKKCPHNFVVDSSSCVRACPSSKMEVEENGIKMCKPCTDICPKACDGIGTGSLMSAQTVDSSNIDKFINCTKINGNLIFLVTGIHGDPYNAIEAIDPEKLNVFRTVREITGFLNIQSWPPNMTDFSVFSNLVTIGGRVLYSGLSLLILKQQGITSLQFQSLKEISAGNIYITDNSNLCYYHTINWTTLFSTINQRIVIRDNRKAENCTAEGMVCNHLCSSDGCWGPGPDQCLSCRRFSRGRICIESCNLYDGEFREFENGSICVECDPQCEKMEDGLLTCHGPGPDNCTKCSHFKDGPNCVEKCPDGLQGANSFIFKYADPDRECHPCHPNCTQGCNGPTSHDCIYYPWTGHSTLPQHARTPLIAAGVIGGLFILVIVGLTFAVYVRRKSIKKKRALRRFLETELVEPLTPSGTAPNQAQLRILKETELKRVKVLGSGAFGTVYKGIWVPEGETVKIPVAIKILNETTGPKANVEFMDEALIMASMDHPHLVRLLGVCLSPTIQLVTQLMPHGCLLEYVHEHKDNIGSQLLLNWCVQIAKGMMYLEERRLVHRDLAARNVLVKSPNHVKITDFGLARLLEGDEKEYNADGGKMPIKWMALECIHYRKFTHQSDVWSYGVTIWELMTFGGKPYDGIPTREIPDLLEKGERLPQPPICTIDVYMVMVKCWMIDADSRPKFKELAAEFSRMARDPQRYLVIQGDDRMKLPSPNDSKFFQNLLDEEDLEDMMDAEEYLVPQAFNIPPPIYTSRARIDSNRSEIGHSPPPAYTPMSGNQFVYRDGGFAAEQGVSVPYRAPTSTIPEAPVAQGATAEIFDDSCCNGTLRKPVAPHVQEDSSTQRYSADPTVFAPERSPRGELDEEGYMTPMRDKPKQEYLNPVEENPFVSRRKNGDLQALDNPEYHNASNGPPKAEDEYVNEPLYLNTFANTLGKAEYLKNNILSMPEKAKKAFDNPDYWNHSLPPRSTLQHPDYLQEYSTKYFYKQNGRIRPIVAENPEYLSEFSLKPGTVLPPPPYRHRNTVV

IC50 [1]	inhibiting effects on BTK kinase (in words) [1]	half-life [3]	CLint scaled [3]	half-life [4]	CLint scaled [4]	IC50 [5]	IC50 [6]	IC50 [7]	IC50 [8]	Compound	other results
415 nM	strong inhibiting effects	–	–	–	–	–	–	–	–	CC#CC(=O)N1CCC[C@H]1c1nc(-c2ccc(NC(=O)c3ccccn3)cc2)c2c(N)nccn12 [Compound of formula Ia]	–
–	–	11.9 min	146 mL/min/kg	23.3 min	234 mL/min/kg	> 1000 nM	> 1000 nM	> 1000 nM	> 1000 nM	CC#CC(=O)N1CCC[C@H]1c1nc(-c2ccc(C(=O)Nc3ccccn3)cc2)c2c(N)nccn12 [Acalabrutinib, acalabrutinib, reference compound]	half life [2]: 67.8 min
50 nM	very strong inhibiting effects	–	–	–	–	–	–	–	–	CC#CC(=O)N1CCC[C@H]1c1nc(-c2ccc(C(=O)Nc3ccccn3)c(C)c2)c2c(N)nccn12 [Compound of formula Ib]	–
4.8 nM	very strong inhibiting effects	3.13 min	555 mL/min/kg	8.26 min	661 mL/min/kg	> 1000 nM	> 1000 nM	> 1000 nM	> 1000 nM	CC#CC(=O)N1CCC[C@H]1c1nc(-c2ccc(Oc3ccccc3)cc2)c2c(N)nccn12 [Compound of formula Id]	selective inhibiting activity (in words) [9]: good; metabolism rate relative to acalabrutinib (in words) ([4]; mouse or human liver microsomes): metabolized faster than acalabrutinib; AUC(0-t) [10, 17]: 661 ng·h/mL; clearance ([10]; 3 mg/kg, intravenous injection, single administration, read-out: CL (clearance) (converted)): 77 mL/min/kg; MRT inf ([10]; 3 mg/kg, intravenous injection, single administration, read-out: MRTINF (average residence time)): 17.8 min; half-life [10, 17]: 17.2 min; Vd ([10]; 3 mg/kg, intravenous injection, single administration, read-out: Vss (apparent volume of distribution at steady state)): 1.3 L/kg; bioavailability ([10]; 15 mg/kg oral vs 3 mg/kg intravenous, read-out: F (bioavailability)): 56.4%; AUC(0-t) [10, 18]: 1880 ng·h/mL; Cmax ([10]; 15 mg/kg, oral, single administration, read-out: Cmax (peak concentration)): 848 ng/mL; half-life [10, 18]: 98.4 min; Tmax ([10]; 15 mg/kg, oral, single administration, read-out: Tmax (peak time)): 15 min; IC50 [11]: > 1000 nM; IC50 [12]: > 1000 nM; IC50 [13]: > 1000 nM; IC50 [14]: > 1000 nM; IC50 [15]: 40 nM; IC50 [16]: > 1000 nM
577 nM	strong inhibiting effects	–	–	–	–	–	–	–	–	CC#CC(=O)N1CCC[C@H]1c1nc(-c2ccc(Oc3ccccn3)cc2)c2c(N)nccn12 [Compound of formula Ic]	–
